Like-named read-outs stand apart in the source and are kept apart here. Where only a bound is given, the exact number is not on record here.

Data set [1] has as its target Drosophila melanogaster Golgi α-mannosidase II (GMIIb) (Drosophila melanogaster, UniProt Q9VF33). Description: Inhibition of Golgi α-mannosidase II (GMIIb), pNP-Man substrate. Type of data set: biochemical. The note with it: for IC50: 2 mM pNP-Man; for fold decrease in inhibition activity against GMIIb in comparison with 1a: relative to 1a. As for the experimental part: (§1) The purification and characterization of recombinant Drosophila melanogaster Golgi α-mannosidase II [9] (GMIIb) and lysosomal α-mannosidase II (LManII) was carried out as already described. Activity of prepared mannosidases was measured using p-nitrophenyl-α-D-mannopyranoside (pNP-Man; Sigma-Aldrich) as a substrate at 2 mM concentration prepared from a 100 mM stock in dimethyl sulfoxide by dilution in 50 mM acetate buffer at optimal pH for the enzymes (Jack bean α-mannosidase (JBMan) at pH 5.0, Golgi α-mannosidase (GMIIb) at pH 6.0 and lysosomal α-mannosidase (LManII) at pH 5.2) and 0.5 μL of the enzyme (0.05 µg of protein for Jack bean α-mannosidase), in a total volume of 50 μL for 1–2 h at 37 °C. GMIIb was assayed in the presence of 0.5 mM CoCl2. Pyrrolidines 2–5 used in biochemical evaluation were lyophilized before use. The inhibitors 2–5 were pre-incubated with the enzyme in the buffer for 5 min at rt and the reaction was started by addition of the substrate. The reactions were terminated with two volumes (0.1 mL) of 0.5 M sodium carbonate and the production of p-nitrophenol was measured at 405 nm using a multimode reader Mithras LB943 (Berthold Technologies). The IC50 value was determined with 2 mM pNP-Man. All biochemical assays were performed in 96 well microplates in triplicate.

In data set [2] the target is T1, Jack bean α-mannosidase (JBMan) (Canavalia ensiformis, UniProt C0HJB3).
T1 construct: purchased
T1 sequence (C0HJB3 1-981): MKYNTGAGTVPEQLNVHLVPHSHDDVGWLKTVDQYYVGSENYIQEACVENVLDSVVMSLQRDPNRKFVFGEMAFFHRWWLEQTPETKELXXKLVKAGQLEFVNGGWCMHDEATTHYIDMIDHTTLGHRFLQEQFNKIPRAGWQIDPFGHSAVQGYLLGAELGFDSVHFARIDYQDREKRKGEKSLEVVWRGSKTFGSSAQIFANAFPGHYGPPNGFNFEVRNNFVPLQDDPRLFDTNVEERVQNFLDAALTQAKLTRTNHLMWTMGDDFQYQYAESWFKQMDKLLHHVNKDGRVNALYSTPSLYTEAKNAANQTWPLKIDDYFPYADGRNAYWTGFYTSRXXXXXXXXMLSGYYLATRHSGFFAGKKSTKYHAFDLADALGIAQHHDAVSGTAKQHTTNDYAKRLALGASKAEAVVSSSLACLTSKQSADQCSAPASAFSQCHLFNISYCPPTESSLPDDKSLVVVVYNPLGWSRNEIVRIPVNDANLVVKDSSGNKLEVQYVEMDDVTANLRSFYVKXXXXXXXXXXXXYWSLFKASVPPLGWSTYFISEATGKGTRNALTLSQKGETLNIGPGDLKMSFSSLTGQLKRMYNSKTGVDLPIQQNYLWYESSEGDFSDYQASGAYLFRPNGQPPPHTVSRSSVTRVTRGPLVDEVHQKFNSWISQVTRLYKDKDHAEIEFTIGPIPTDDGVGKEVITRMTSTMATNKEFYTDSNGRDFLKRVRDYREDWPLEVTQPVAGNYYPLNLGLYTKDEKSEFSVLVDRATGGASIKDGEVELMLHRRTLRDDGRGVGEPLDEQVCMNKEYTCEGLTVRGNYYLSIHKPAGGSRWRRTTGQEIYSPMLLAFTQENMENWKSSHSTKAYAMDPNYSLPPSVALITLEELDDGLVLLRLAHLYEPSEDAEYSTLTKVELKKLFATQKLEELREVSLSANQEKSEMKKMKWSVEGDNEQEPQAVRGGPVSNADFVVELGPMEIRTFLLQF
Description: Inhibition of jack bean α-mannosidase (JBMan), pNP-Man substrate. It counts as biochemical. The note with it: n.i. = no inhibition, 2 mM pNP-Man; for inhibition at 2000 µM: pH 5, 2 mM inhibitor, read-out: JBMan (%) inhibition in the presence of 2 mM inhibitor concentration; for JBMan (%) inhibition in the presence of 2 mM inhibitor concentration: pH 5.0. The procedure: as §1

For data set [3], the target named is lysosomal α-mannosidase II (LManII) (Drosophila melanogaster, UniProt Q9VKV1). Description: Inhibition of lysosomal α-mannosidase II (LManII), pNP-Man substrate. The note with it: n.i. = no inhibition, 2 mM pNP-Man, pH 5.2. Type of data set: biochemical. The procedure:
as §1

Setting [4] is: pH 6.0, 0.5 mM CoCl2, 37 °C, read-out: GMIIb [IC50 (M)].

Chain of Drosophila melanogaster Golgi α-mannosidase II (GMIIb) (Q9VF33 entry or part of it): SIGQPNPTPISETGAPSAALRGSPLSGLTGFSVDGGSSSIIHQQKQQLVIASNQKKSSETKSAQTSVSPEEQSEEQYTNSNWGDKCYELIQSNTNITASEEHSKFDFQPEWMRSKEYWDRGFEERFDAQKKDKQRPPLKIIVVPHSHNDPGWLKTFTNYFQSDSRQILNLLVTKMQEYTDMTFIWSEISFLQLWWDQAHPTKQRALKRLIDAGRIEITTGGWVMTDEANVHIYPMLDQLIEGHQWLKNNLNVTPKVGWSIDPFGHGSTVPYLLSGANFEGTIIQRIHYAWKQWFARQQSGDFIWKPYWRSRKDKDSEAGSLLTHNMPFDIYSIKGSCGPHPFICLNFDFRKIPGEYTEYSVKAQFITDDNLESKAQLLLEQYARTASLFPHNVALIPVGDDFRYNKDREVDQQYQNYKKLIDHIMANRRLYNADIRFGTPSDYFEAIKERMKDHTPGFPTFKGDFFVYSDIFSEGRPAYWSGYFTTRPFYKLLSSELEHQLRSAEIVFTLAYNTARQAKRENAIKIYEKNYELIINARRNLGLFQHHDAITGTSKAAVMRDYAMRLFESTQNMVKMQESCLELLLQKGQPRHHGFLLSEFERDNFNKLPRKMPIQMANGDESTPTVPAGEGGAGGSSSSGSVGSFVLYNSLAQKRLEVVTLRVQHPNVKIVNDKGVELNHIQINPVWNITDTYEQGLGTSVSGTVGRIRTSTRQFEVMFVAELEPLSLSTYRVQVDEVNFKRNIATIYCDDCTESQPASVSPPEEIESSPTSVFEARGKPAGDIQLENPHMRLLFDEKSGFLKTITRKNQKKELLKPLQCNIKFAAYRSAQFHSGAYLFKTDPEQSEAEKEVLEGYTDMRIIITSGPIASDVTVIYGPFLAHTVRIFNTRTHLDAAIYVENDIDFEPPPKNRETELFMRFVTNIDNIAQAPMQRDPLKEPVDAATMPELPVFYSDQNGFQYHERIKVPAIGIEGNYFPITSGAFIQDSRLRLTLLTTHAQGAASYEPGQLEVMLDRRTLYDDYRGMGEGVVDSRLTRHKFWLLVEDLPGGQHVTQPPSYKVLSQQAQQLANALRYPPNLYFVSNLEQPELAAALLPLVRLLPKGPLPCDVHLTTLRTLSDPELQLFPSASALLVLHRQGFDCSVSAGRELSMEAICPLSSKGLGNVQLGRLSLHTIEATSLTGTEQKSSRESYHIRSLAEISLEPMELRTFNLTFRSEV
Chain of lysosomal α-mannosidase II (LManII) (Q9VKV1 entry or part of it): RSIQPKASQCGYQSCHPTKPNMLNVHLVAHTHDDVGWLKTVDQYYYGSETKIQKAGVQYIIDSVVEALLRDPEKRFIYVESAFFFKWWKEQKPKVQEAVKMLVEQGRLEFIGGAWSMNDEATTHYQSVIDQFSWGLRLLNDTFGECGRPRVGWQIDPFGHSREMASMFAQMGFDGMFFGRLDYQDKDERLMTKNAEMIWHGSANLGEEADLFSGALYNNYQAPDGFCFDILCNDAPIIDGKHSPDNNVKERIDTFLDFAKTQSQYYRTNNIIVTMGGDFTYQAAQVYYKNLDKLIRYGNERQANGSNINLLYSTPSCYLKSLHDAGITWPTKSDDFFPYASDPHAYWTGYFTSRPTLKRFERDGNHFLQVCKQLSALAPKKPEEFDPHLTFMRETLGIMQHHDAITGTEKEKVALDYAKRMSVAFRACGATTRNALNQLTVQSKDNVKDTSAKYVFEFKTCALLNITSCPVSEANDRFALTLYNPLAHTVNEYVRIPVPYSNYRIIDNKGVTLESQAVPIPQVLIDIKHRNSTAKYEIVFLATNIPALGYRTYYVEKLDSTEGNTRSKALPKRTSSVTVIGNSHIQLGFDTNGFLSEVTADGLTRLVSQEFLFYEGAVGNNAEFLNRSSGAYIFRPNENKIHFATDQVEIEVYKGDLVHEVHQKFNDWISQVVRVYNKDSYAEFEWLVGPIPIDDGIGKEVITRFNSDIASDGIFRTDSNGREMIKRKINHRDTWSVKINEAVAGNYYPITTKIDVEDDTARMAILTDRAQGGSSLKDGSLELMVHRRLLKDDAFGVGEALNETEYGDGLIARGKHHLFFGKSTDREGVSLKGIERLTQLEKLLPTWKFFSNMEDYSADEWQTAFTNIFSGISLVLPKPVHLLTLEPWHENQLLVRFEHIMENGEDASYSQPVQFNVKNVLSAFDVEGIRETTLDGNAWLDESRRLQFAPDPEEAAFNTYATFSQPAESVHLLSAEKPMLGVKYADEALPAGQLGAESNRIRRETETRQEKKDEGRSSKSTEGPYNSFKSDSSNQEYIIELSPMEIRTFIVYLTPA

One may read the IC50 as the midpoint of a concentration-inhibition curve. By melting point is commonly meant the temperature of the solid-liquid transition. In the case of `CC[C@H]1[C@@H](O)[C@@H](O)CN1Cc1ccccc1` [Compound 3a], the melting point fell in the range of 76 to 78 °C. Moreover, in data set [1] (setting [4]), the IC50 was determined as 0.00075 M. Also, the inhibition at 2000 µM in data set [2] was 3%. In addition, in data set [3], the “LmanII inhibition in the presence of 2 mM inhibitor concentration” value (from here on “LmanII inhibition in the presence”) is on record as “n.i.^a”.

For `C[C@H]1[C@@H](O)[C@@H](O)CN1Cc1ccc(I)cc1` [Compound 2c], the IC50 in data set [1] (setting [4]) came out at 0.0003 M. Besides, the “JBMan (%) inhibition in the presence of 2 mM inhibitor concentration” value (“JBMan (%) inhibition in the presence” for short) in data set [2] was “n.i”. In addition, in data set [3], the “LmanII inhibition in the presence” value is “n.i.^a”.

On to `C[C@H](O)[C@H]1[C@@H](O)[C@@H](O)CN1Cc1ccccc1` [Compound 5a, (2S,3R,4S)-1-Benzyl-2-((S)-1-hydroxyethyl)pyrrolidine-3,4-diol], for which the IC50 in data set [1] (setting [4]) amounted to 0.00195 M. Moreover, the “fold decrease in inhibition activity against GMIIb in comparison with 1a” value in data set [1] is “about 25 fold”. Moreover, in data set [2], the inhibition at 2000 µM is 21%. For the same molecule, the “LmanII inhibition in the presence” value in data set [3] is given as “n.i.^a”.

As to `C[C@@H](O)[C@H]1[C@@H](O)[C@@H](O)CN1Cc1ccc(I)cc1` [Compound 4c], the IC50 in data set [1] (setting [4]) came out at 0.0019 M. Moreover, the inhibition at 2000 µM in data set [2] is 17%. Further, the “LmanII inhibition in the presence” value in data set [3] is “n.i.^a”.

Turning to `C[C@H](O)[C@H]1[C@@H](O)[C@@H](O)CN1Cc1ccc(Br)cc1` [Compound 5b, (2S,3R,4S)-1-(4-Bromobenzyl)-2-((S)-1-hydroxyethyl)pyrrolidine-3,4-diol], the IC50 in data set [1] (setting [4]) was 0.00265 M. Moreover, in data set [2], the inhibition at 2000 µM amounted to 40%. Further, in data set [3], the “LmanII inhibition in the presence” value is “n.i.^a”.

Consider `C[C@H]1[C@@H](O)[C@@H](O)CN1Cc1ccccc1` [Compound 2a], for which the IC50 in data set [1] (setting [4]) is 0.00036 M. Also, the “JBMan (%) inhibition in the presence” value in data set [2] is recorded as “n.i”. Further, the “LmanII inhibition in the presence” value in data set [3] is reported as “n.i.^a”.

Consider `C[C@@H](O)[C@H]1[C@@H](O)[C@@H](O)CN1Cc1ccc(Br)cc1` [Compound 4b], for which, in data set [1] (setting [4]), the IC50 was determined as 0.0016 M. Moreover, the inhibition at 2000 µM in data set [2] was determined as 4%. Moreover, the “LmanII inhibition in the presence” value in data set [3] is on record as “n.i.^a”.

In the case of `C[C@H](O)[C@H]1[C@@H](O)[C@@H](O)CN1Cc1ccc(I)cc1` [Compound 5c, (2S,3R,4S)-1-(4-Iodobenzyl)-2-((S)-1-hydroxyethyl)pyrrolidine-3,4-diol], the IC50 in data set [1] (setting [4]) was determined as 0.00295 M. Also, in data set [2], the “JBMan (%) inhibition in the presence” value is reported as 38% and the inhibition at 2000 µM came out at 40%. For the same molecule, the “LmanII inhibition in the presence” value in data set [3] was “n.i.^a”.

For the molecule `C[C@H]1[C@@H](O)[C@@H](O)CN1Cc1ccc(Br)cc1` [Compound 2b], in data set [1] (setting [4]), the IC50 came out at 0.00035 M. In addition, in data set [2], the “JBMan (%) inhibition in the presence” value is recorded as “n.i”. Further, the “LmanII inhibition in the presence” value in data set [3] is “n.i.^a”.

Regarding `CC[C@H]1[C@@H](O)[C@@H](O)CN1Cc1ccc(Br)cc1` [Compound 3b], the IC50 in data set [1] (setting [4]) came out at 0.00095 M. Also, the inhibition at 2000 µM in data set [2] amounted to 14%. The “LmanII inhibition in the presence” value in data set [3] is reported as “n.i.^a”.

In the case of `C[C@@H](O)[C@H]1[C@@H](O)[C@@H](O)CN1Cc1ccccc1` [Compound 4a], the IC50 in data set [1] (setting [4]) was 0.0018 M. For the same molecule, the “fold decrease in inhibition activity against GMIIb in comparison with 1a” value in data set [1] was “about 25 fold”. Also, in data set [2], the inhibition at 2000 µM was determined as 2%. Also, the “LmanII inhibition in the presence” value in data set [3] is “n.i.^a”.

For `CC[C@H]1[C@@H](O)[C@@H](O)CN1Cc1ccc(I)cc1` [Compound 3c], the IC50 is 0.00045 M in data set [1] (setting [4]) and less than 0.0005 M in data set [1] (pH 6.0, read-out: GMIIb IC50). Besides, in data set [2], the inhibition at 2000 µM amounted to 39%. For the same molecule, the “LmanII inhibition in the presence” value in data set [3] is recorded as “n.i.^a”.
